Laboratory results: patent US10125358B2, “Methods and compounds for increasing threonyl-tRNA synthetase activity” (UNIVERSITY OF VERMONT AND STATE AGRICULTURAL COLLEGE, priority 2012, dated 2018)
Positions count from the first letter of the chain named. Numbers in names are those of the source. Entries after “also recorded” stand apart in the source; their conditions may differ.

Columns and labels:
[1] = tested on: HUVECs; assay: Quantitative RT-PCR of TARS mRNA; assay type: cell-based, human; conditions: HUVECs exposed to 50 ng/ml
Procedure: Total RNA was extracted from cells using the RNeasy column protocol and cDNA was generated using an Omniscript reverse transcriptase assay according to the manufacturer's instructions (Qiagen, Frederick, Md.). Primers and probes for TARS and β2-microglobulin were Assays-on-Demand (Applied Biosystems, [Life Technologies, Carlsbad, Calif.]). RT-qPCR was performed using an ABI prism 7700 Sequence Detection System (Applied Biosystems). The relative quantity of mRNA level was determined using the comparative CT (ΔΔCT) method using β2-microglobulin to normalize mRNA level (Cassavaugh, Hale et al. 2011).

[2] = tested on: chorioallantoic membrane (CAM) of chicken embryos; assay: Chick chorioallantoic membrane (CAM) assay; assay type: in vivo; conditions: for CAM vessel formation / vascularity, effect of applied synthetase: purified protein applied daily to gelfoam sponge, 72 h
Procedure: Chick Chorioallantoic Membrane Assay—
Fertilized chicken eggs (Sunrise Farms, Catskill, N.Y.) day 1-2 post-laying were incubated in a humidified incubator at 37° C. for 72 h. Cleaned eggs were cracked and plated in a sterile 10 cm^2 tissue culture-treated dish and incubated at 37° C. for another 7 days. On developmental day 10, 1 mm^3 sterile gelatin sponge pieces (Surgifoam®; Johnson & Johnson Wound Management, Somerville, N.J.) were placed within the outer one-third of the membrane between large vessels. […] All compounds were applied in 10 μl to the CAM every 24 h for 72 h. Images were taken using a Leica MZ6 stereomicroscope every 24 h. Compounds were scored according to a modified version of Intensity Scoring as previously described (Ribatti, Nico et al. 2006). Briefly, each experimental condition was given a blinded score from 0-5 based on the change in the extent of vessel convergence and formation in proximity to the sponge from day 0 to day 3. Total score is averaged individual experimental condition scores from at least 15 replicates.
Fertilized chicken embryos were cultured ex-ova and, starting at developmental day 10, agents were applied daily to gelfoam sponges on the CAM. Images were recorded daily over 72 h and scored blindly according to a modified version Intensity Scoring as previously described (Ribatti, Nico et al. 2006). Additional details regarding methods are provided in the Methods and Materials section of Example 1.

[3] = LARS steady state ATPase activity (32P-ATP to AMP); assay type: biochemical; conditions: 1 μM human LARS
Procedure: LARS steady state ATPase activity was determined using the same procedure as for TARS aminoacylation with the following modifications. […] ATP (PerkinElmer, Waltham, Mass.) was added. Reactions were incubated for 3 minutes at 37° C. and initiated with the addition of 1 μM human LARS. At various time points 5 μl aliquots were quenched in 45 μl of 500 mM sodium acetate and 0.1% sodium dodecyl sulfate. For each sample, 1 μl was spotted onto a CCM cellulose PEI F plates (EMD) and resolved via thin-layer chromatography in 0.75 M potassium phosphate buffer mobile phase. Radioactive signals were detected via phosphorimaging and AMP production overtime was quantified using Quantity One v 4.6.6 software (Bio-Rad, Hercules, Calif.).

[4] = tested on: HUVEC; assay: Transwell migration assay; assay type: cell-based, human; conditions: 100 nM protein in migration compartment, 4 h
Procedure: Transwell Migration Assay—
Migration was assessed using transwell inserts (Svensson, Kucharzewska et al. 2011). […] Cultures were incubated for 4 h, fixed in 10% formalin, and stained with 10 μg/ml DAPI solution (Roche) following removal of cells from the top layer of the chamber with a cotton swab. Migrated cells were imaged using a 4× objective on the Olympus IX70 Inverted microscope (Olympus). DAPI-stained nuclei were counted using ImageJ software.

[5] = biological target: T1, TARS (Homo sapiens, UniProt P26639); assay: Ap4A formation assay (TLC, [α-32P]-ATP); assay type: biochemical; set-up: His6 (N); made in house; host or cells: E. coli Rosetta 2 (DE3)pLysS, plasmid pET28a hctThrRS
T1 sequence (P26639 1-723): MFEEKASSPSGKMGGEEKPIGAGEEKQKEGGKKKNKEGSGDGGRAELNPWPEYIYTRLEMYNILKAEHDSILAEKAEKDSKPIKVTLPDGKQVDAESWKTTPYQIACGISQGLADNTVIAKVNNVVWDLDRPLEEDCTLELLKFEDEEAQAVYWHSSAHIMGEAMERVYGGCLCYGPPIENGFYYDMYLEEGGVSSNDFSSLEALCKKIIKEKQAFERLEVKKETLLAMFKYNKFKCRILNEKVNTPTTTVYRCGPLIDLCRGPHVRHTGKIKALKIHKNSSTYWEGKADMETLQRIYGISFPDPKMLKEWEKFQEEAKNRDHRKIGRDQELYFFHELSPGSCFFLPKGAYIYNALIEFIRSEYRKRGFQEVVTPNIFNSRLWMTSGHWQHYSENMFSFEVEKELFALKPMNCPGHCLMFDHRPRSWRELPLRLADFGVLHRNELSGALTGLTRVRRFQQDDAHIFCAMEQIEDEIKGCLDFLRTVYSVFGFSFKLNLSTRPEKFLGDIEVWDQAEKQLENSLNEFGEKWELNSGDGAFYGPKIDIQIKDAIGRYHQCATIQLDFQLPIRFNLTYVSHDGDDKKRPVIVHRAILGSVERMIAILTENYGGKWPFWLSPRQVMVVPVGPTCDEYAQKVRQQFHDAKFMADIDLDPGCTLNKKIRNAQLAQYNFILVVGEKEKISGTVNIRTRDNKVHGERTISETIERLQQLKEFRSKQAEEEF

[6] = biological target: T1, TARS; assay: GTPase (GTP hydrolysis) assay; assay type: biochemical; set-up: His6 (N); made in house; host or cells: E. coli Rosetta 2 (DE3)pLysS, plasmid pET28a hctThrRS; conditions: 10 μM compound
[7] = tested on: SKOV-3 cells; assay: HIF-1α stabilization in hypoxia (Western blot); assay type: cell-based; conditions: for HIF-1α protein stabilization: hypoxia (2% O2), 6 h
Procedure: After treatments, cells were harvested into sample buffer containing: 0.2 M Tris-HCL, 4% SDS, 4% β-mercaptoethanol, 40% glycerol, 4 μM pyronin Y. Extracts were sheared through a 24-gauge syringe. Samples were separated by 10% SDS-PAGE and transferred to nitrocellulose membrane and probed with rabbit polyclonal anti-TARS (1:500; Santa Cruz Biotechnology, Dallas, Tex.) or monoclonal anti-HIF-1α (BD Transduction Laboratories, [BD Biosciences, San Jose, Calif.]) (Lounsbury, Beddow et al. 1994). Secondary antibodies were HRP-goat-anti-mouse and HRP-goat-anti-rabbit (1:5,000; Jackson Laboratories, Bar Harbor, Me.).

[8] = biological target: T1, TARS; assay: Ap4G formation assay (TLC, [α-32P]-GTP); assay type: biochemical; set-up: His6 (N); made in house; host or cells: E. coli Rosetta 2 (DE3)pLysS, plasmid pET28a hctThrRS
[9] = biological target: T1, TARS; assay: Ki of borrelidin compounds for TARS; assay type: biochemical; conditions: calculated; data not shown
[10] = tested on: tRNAThr; assay: Steady state aminoacylation assay; assay type: biochemical, E. coli or human; conditions: purified recombinant protein
Procedure: Steady State Aminoacylation Assay—
The aminoacylation activities of the TARS constructs were determined using modifications to established procedures (Francklyn et al 2008). Briefly, reaction mixtures consisted of 20 mM Tris-HCl pH 8.0, 100 mM KCl, 10 mM MgCl2, 1 mM dithiothreitol, 2 mM ATP, 2.5 U pyrophosphatase (Roche), 80 μM threonine, 20 μM [14C]-threonine, and 5 μM of E. coli or human tRNAThr. Reactions were initiated with the addition of 0.25-0.75 μM TARS and run at 37° C. Aliquots were taken at varying time points and spotted onto Whatmann 3MM paper filters pre-soaked in 5% trichloroacetic acid (TCA). Upon completion, the filters were washed 3 times in excess TCA, once in 95% ethanol, and dried under a heating lamp. The formation of Thr-tRNAThr was detected by scintillation counter and the activity determined by linear regression of threonyl-tRNAThr formed per active site per unit time.

Molecule: TNF-α
- TARS mRNA level [1]: neither VEGF nor TNF-α induced an increase; also recorded: do not induce TARS transcription

Molecule: VEGF
- TARS mRNA level [1]: neither VEGF nor TNF-α induced an increase; also recorded: do not induce TARS transcription

Molecule: LARS: N-terminal HIS6-tagged human leucyl tRNA synthetase purified from E. coli
- CAM vessel formation / vascularity, effect of applied synthetase [2]: no observable effect; also recorded: no effect on angiogenesis
- LARS enzyme activity (conversion of 32P-ATP to AMP) [3]: exhibits enzyme activity
- migration of endothelial cells [4]: did not affect migration

Molecule: C[C@@H]1C[C@H](C)C[C@H](C)[C@@H](O)CC(=O)O[C@H]([C@@H]2CCC[C@H]2C(=O)O)C/C=C/C=C(/C#N)[C@H](O)[C@@H](C)C1 [borrelidin]
- Ap4A synthesis, inhibition (qualitative) ([5]; human TARS, 10 μM compound): at least partially inhibited
- decrease in Ap4A formation activity ([5]; wildtype TARS, 10 μM compound): 59.4%
- change of TARS GTPase activity upon treatment with inhibitor [6]: no observable change
- HIF-1α transcription ([7]; SK-OV3 cells responding to hypoxia): no change in HIF-1α transcription
- HIF-1α protein stabilization [7]: reduce HIF-1α stabilization
- HIF-1α protein stabilization ([7]; listed as BC144): diminished the levels of HIF-1α protein stabilization
- Ap4G synthesis, inhibition (qualitative) ([8]; human TARS, 10 μM compound): at least partially inhibited
- Ki [9]: 4.6 nM

B1: L567V TARS: BC194-resistant (borrelidin-resistant) L567V mutant of human TARS (protein, listed as Homo sapiens)
chain: T1 sequence (P26639 1-723) with L567V
- sensitivity of synthetase-induced CAM angiogenesis to BC194 ([2]; protein plus BC194 applied to CAM): not inhibited
- CAM vessel formation / vascularity, effect of applied synthetase [2]: stimulated vessel formation
- aminoacylation activity [10]: not compromised

B2: R442A TARS: aminoacylation-deficient human TARS mutant; essential catalytic arginine 442 exchanged for alanine (protein, listed as Homo sapiens)
chain: T1 sequence (P26639 1-723) with R442A
- Ap4A production rate ([5]; 5 μM enzyme, 2 mM threonine, 2 mM ATP): no appreciable activity; also recorded: blocked
- CAM vessel formation / vascularity, effect of applied synthetase [2]: virtually indistinguishable from wild type
- Ap4G formation rate ([8]; 2 mM ATP, 2 mM threonine, 2 mM GTP): not catalyzed; also recorded: blocked
- aminoacylation activity [10]: essentially no aminoacylation activity; also recorded: virtually negligible aminoacylation function
